Results: patent US10874107B2, “β-lactamase targeted photosensitizer for pesticide and pest detection” (The General Hospital Corporation, priority 2012, dated 2020)

What was measured:
[1] = UV-visible and fluorescence emission spectra of prodrug vs. free photosensitizer (TBO); assay type: physicochemical
[2] = molecular target: β-lactamase from Enterobacter cloacae (Enterobacter cloacae, UniProt P05364); assay: Enzyme-mediated cleavage of the prodrug (fluorescence emission); assay type: biochemical
Chain of β-lactamase from Enterobacter cloacae (P05364 21-381): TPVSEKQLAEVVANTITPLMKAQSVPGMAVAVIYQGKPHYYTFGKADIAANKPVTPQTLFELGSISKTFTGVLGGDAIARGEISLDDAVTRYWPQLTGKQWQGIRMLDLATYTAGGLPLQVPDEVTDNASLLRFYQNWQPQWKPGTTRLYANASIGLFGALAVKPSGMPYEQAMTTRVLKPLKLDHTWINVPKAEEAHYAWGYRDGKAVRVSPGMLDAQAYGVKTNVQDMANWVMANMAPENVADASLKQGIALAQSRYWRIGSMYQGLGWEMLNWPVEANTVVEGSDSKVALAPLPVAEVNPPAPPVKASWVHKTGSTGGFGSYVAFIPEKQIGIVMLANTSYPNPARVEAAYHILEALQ
Description: FIGS. 6A and B show plots of (a) fluorescence emission vs. wavelength and (b) fluorescence emission vs. time for the Cephalosporanic acid-photosensitizer prodrug, depicting the enzyme-mediated cleavage of the prodrug.
The prodrug obtained was further studied for release of photosensitizer in presence of β-lactamase from Enterobacter cloacae. For the fluorescence emission study of the prodrug, the solvent employed was water, and the excitation wavelength 635 nm in the presence of beta-lactamase enzyme (from Enterobacter cloacae). Time-dependent fluorescence emission was also measured for photosensitizer release from the prodrug in the presence of enzyme. […] Thus, the prodrug was ynthesized and characterized.

Cephalosporanic Acid-Toluidine blueO Prodrug
quenching of the photosensitizer in the conjugated form [1]: quantitative quenching
reduction in fluorescence emission maxima (prodrug vs. TBO) ([1]; 635 nm excitation, ethanol): ~8 fold
shift in the absorption spectra (UV-visible) ([1]; ethanol, 2.0×10^−5 M, vs. TBO): blue shift
lactamase-specific activity [2]: demonstrated lactamase-specific activity
increase in excited stated properties (fluorescence emission) on incubation with enzyme ([2]; water, excitation 635 nm, within minutes of incubation with β-lactamase): ~5 fold
